According to patent US8710061B2, “Compounds for the reduction of β-amyloid production” (Bristol-Myers Squibb Company, priority 2011, dated 2014):
pIC50: −log10 of the molar value. Like-named read-outs stand apart in the source and are kept apart here.

System: Aβ42 production in H4 APP751 SWE clone 8.20 cells
Assay: Cellular assay for inhibition of Aβ1-42 production
Assay type: cell-based
Details: 19 h incubation
Method: Cellular Assays for Inhibition of Aβ1-40 and Aβ1-42 Production
H4 cells stably transfected with APP751 containing the Swedish mutation (H4 APP751 SWE clone 8.20, developed at BMS) were maintained in log phase through twice weekly passage at a 1:20 split. […] Following incubation for 19 h in 5% CO2 at 37° C., plates were briefly centrifuged (1000 rpm, 5 min). A 10 μl aliquot from each well was transferred to a second assay plate (Costar 3709) for Aβ40 measurements. Antibody cocktails were freshly prepared by dilution into 40 mM Tris-HCl (pH 7.4) with 0.2% BSA and added to assay plates. For Aβ42 measurements, antibodies specific for the Aβ42 neoepitope (565, developed at BMS; conjugated to the Wallac reagent (Perkin Elmer)) and the N-terminal sequence of Aβ peptide (26D6, developed at SIBIA; conjugated to […] (Perkin Elmer)) were mixed and 20 μl of the mixture was added to each well of the incubated cell plate yielding a final concentration of 0.8 ng/well 565 and 75 ng/well 26D6. For the Aβ40 measurements, antibodies specific for the Aβ40 neoepitope (TSD, developed at BMS; conjugated to the Wallac reagent (Perkin Elmer)) and 26D6 as described above were mixed and 20 μl of the mixture was added to the 10 μl aliquots which had been removed previously from the cell plate yielding a final concentration of 1.6 ng/well TSD and 17.5 ng/well 26D6. Assay plates containing antibodies were sealed with aluminum foil and incubated overnight at 4° C. Signal was determined using a Viewlux counter (Perkin Elmer) and IC50 values determined using curve fitting in CurveMaster (Excel Fit based).

[1] = read-out: Activity Rating (Aβ42 cellular IC50), class symbol
[2] = read-out: Activity Rating (Aβ42 cellular IC50), given as number

SMILES	pIC50 [1]	pIC50 [2]
CNc1nc(Nc2ccc(C#N)c(OC)c2)nc2c1CCC2c1cccc(OC)c1 (racemic) [Example 7, 2-methoxy-4-(7-(3-methoxyphenyl)-4-(methylamino)-6,7-dihydro-5H-cyclopenta[d]pyrimidin-2-ylamino)benzonitrile]	7.00 to 8.00	–
CNc1nc(Nc2ccc(C#N)c(OC)c2)nc2c1CC[C@H]2c1ccccc1OC (single isomer, unassigned) [Example 1A]	–	7.89
CNc1nc(Nc2ccc(C#N)c(OC)c2)nc2c1CC[C@H]2c1ccccc1Cl (single isomer, unassigned) [Example 3A]	8.00 to 8.82	–
CNc1nc(Nc2ccc(C#N)c(OC)c2)nc2c1CC[C@H]2c1ccccc1F (single isomer, unassigned) [Example 4A]	7.00 to 8.00	–
CNc1nc(Nc2ccc(C#N)c(OC)c2)nc2c1CC[C@H]2c1c(F)cc(F)cc1F (single isomer, unassigned) [Example 5A]	–	7.96
CNc1nc(Nc2ccc(C#N)c(OC)c2)nc2c1CC[C@H]2c1ccc(Cl)cc1F (single isomer, unassigned) [Example 6A]	7.00 to 8.00	–
CNc1nc(Nc2ccc(C#N)c(OC)c2)nc2c1CC[C@@H]2c1ccccc1OC [Example 1B, (R)-2-methoxy-4-(7-(2-methoxyphenyl)-4-(methylamino)-6,7-dihydro-5H-cyclopenta[d]pyrimidin-2-ylamino)benzonitrile]	7.00 to 8.00	–
CNc1nc(Nc2ccc(C#N)c(OC)c2)nc2c1CC[C@@]2(C)c1ccc(F)cc1 [Example 2A, (S)-4-(7-(4-fluorophenyl)-7-methyl-4-(methylamino)-6,7-dihydro-5H-cyclopenta[d]pyrimidin-2-ylamino)-2-methoxybenzonitrile]	–	6.70
CNc1nc(Nc2ccc(C#N)c(OC)c2)nc2c1CC[C@]2(C)c1ccc(F)cc1 [Example 2B, (R)-4-(7-(4-fluorophenyl)-7-methyl-4-(methylamino)-6,7-dihydro-5H-cyclopenta[d]pyrimidin-2-ylamino)-2-methoxybenzonitrile]	6.00 to 7.00	–
CNc1nc(Nc2ccc(C#N)c(OC)c2)nc2c1CCC2c1ccc(C(F)(F)F)cc1F (centres unmarked) [Example 8, 4-(7-(2-fluoro-4-(trifluoromethyl)phenyl)-4-(methylamino)-6,7-dihydro-5H-cyclopenta[d]pyrimidin-2-ylamino)-2-methoxybenzonitrile]	7.00 to 8.00	–
CNc1nc(Nc2ccc(C#N)c(OC)c2)nc2c1CCC2c1ccc(OC(F)(F)F)cc1F (centres unmarked) [Example 9, 4-(7-(2-fluoro-4-(trifluoromethoxy)phenyl)-4-(methylamino)-6,7-dihydro-5H-cyclopenta[d]pyrimidin-2-ylamino)-2-methoxybenzonitrile]	–	7.92
